Results reported in patent publication EP1377579B1 (Aventis Pharmaceuticals Inc., priority 2000, dated 2002).
Several values for one entry are separate records, joined by “and”; a condition that tells them apart may be missing. Equal values may be shown once. Read-outs that look alike come from different tables or passages of the source.

Experiments:
cdk4/cyclin D1 = cdk4/cyclin D1 (Homo sapiens, UniProt P11802); experiment: Cyclin-dependent kinase assay, cdk4/cyclin D1; assay type: biochemical; conditions: cyclin D1/cdk4; GST-pRb substrate, 10 µM ATP
Sequence of cdk4/cyclin D1 (P11802 whole entry): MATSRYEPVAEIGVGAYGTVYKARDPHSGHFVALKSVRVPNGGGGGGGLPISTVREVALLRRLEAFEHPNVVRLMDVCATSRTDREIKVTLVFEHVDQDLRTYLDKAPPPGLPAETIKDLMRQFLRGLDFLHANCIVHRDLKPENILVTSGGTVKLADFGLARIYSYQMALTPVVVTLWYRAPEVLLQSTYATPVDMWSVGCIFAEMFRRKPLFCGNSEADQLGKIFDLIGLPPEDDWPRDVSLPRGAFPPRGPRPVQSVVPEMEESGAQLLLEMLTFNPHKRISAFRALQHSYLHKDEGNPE
Sequence of cdk4/cyclin D1 (P24385 whole entry partner): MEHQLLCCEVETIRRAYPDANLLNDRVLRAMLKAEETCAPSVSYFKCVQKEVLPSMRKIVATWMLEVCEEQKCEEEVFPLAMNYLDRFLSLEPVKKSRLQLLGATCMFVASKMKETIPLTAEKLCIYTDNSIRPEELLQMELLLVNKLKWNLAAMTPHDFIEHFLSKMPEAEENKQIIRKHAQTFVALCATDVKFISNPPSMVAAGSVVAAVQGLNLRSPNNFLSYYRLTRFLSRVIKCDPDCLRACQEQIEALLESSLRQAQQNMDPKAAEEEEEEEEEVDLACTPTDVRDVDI

NCI-H460 = experiment: In vitro proliferation assay (MTT), NCI-H460; assay type: cell-based; conditions: Homo sapiens
Procedure, shortened: (§1)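 IC50 values come from live-cell estimates based on MTT reduction measured at 570 nm after 3 days of compound treatment. Cells are seeded at 1000 to 2500 per well in serum-supplemented RPMI 1640. They are stained with MTT for 2 to 4 hr at 37 C and the dye is then taken up in DMSO.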

HL-60 = experiment: In vitro proliferation assay (MTT), HL-60; assay type: cell-based; conditions: Homo sapiens
Procedure, shortened: as §1

PC-3 = experiment: In vitro proliferation assay (MTT), PC-3; assay type: cell-based, human; conditions: Homo sapiens
Procedure, shortened: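 Step one: plate 1000 to 2500 cells per well and let them recover overnight. Step two: treat with compound for 3 days. Step three: add MTT, dissolve dye in DMSO, read absorbance at 570 nm and determine IC50.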

[1] = system: PC-3 Human Prostate Tumors; experiment: PC-3 human prostate tumor xenograft in nude mice; assay type: in vivo; design: unit not given here
Procedure: (§2) Antitumor efficacy is assessed using two subcutaneous human tumor xenograft models. The studies are performed using conventional assay techniques. Briefly, HL-60 (leukemia, 5 x10^5 cells) and PC-3 (prostate, 5 x 10^6 cells) tumor cells are injected subcuateously into nude mice (Crl-CD1-Br-nu, Charles River Laboratory, Wilmington, MA). Dosing with compounds began when tumors reached 50 to 100 mm^3. The dose route/schedule for the test compounds is ip/qld (5x/wk). The test doses are set based on the maximum tolerated dose (MTD). […] The test doses for the efficacy studies are set at 1/3rd the MTD (low dose) and the MTD (high dose). The results are shown in Tables 4 and 5 (HL-60, leukemia) (PC-3, prostate cancer). The length of the treatment phase is dependent on the tumor growth rate for the two models. This treatment phase is typically about 3 weeks for the HL-60 model and about 5 weeks for the PC-3 model. […] Dosing with flavopiridol is for the same time frame as for the experimental compounds in both xenograft models. Tumor volume (twice weekly) and body weights (once weekly) are monitored throughout the course of the treatment phase of the experiment. Tumor sizes are measured by external caliper measurements of protruding tumor. Volumes are calculated using the following formula: volume =½ (a x b2), where b is the smaller of two perpendicular diameters.

HL-60 Human Leukemia = experiment: HL-60 human leukemia xenograft in nude mice; assay type: in vivo; design: key: tumor volume = ½(a × b²) from caliper diameters, in mm^3
Procedure: as §2

[2] = Red blood cell binding, mouse whole blood; assay type: in vitro ADME; conditions: 30 minutes at 37°C, 500 ng/ml
Procedure: Compounds, including one positive control, are assessed for red blood cell (RBC) uptake, using a modified procedure based on the protocol reported in Sun, J.X.S., et al. High-performance liquid chromatographic analysis, plasma protein binding and red blood cell partitioning of phenprobamate. Biopharmaceutics and Drug Disposition, 8 (1987) 341-351.
Briefly, RBC uptake is evaluated by comparison of the levels in spiked plasma (n=3) and plasma isolated from spiked whole blood (n=3). Compounds are incubated with human and mouse whole blood, respectively, for 30 minutes at 37°C using a nominal concentration of 500 ng/ml. Following centrifugation, the plasma is removed and submitted for analysis. Each compound is also spiked into blank plasma at a nominal concentration of 500 ng/ml, and submitted for analysis. Levels in the two plasma samples (Cp' and Cp in the equation below) and the blood hematocrit are used to determine the red blood cell to plasma ratio (Crbc/Cp). (Crbc)/(Cp) = (Cpʹ)/(Cp•H)-((1-H))/(H) [formula] In equation 1, Cp' is the level of drug in the spiked "blank" plasma, Cp is the level of drug in the plasma of spiked whole blood, and H is the hematocrit. The hematocrit values are determined as 0.4 for human whole blood and 0.41 for mouse whole blood. The samples are analyzed with ESI LC/MS, using positive ion detection with an internal standard.
The red blood cell to plasma ratio is determined for each compound using equation 1. Tables 6 and 7 summarize the respective mean Crbc/Cp values and standard deviations for mouse and human whole blood, respectively, in descending order based on the red blood cell to plasma ratio, where"*" denotes Positive Control, and "ND" denotes Not Determined. MDL 108552 is included as a positive control for red blood cell uptake. Table 6. Red Blood Cell to Plasma Ratio for compounds in mouse whole blood

[3] = NCI-H460, MTT assay, value (SD, n) where given, read-out: H-460 Lung (IC50 µM)
[4] = HL-60, MTT assay, value (SD, n) where given, read-out: HL-60 Leuk. (IC50 µM)
[5] = PC-3, MTT assay, value (SD, n) where given, read-out: PC-3 Prostate (IC50 µM)
[6] = NCI-H460, read-out: H-460 Lung (IC50 µM)
[7] = HL-60, read-out: HL-60 Leuk. (IC50 µM)
[8] = PC-3, read-out: PC-3 Prostate (IC50 µM)

| Structure (SMILES) | IC50 (cdk4/cyclin D1) [nM] | IC50 (NCI-H460; [3]) [µM] | IC50 (HL-60; [4]) [µM] | IC50 (PC-3; [5]) [µM] | PC-3 Mean Vol. ± SD ([1]; Table 5, dose 3 mg/kg ip) | PC-3 Mean Vol. ± SD ([1]; Table 5, dose 10 mg/kg ip) | HL60 Mean Vol. ± SD (HL-60 Human Leukemia; Table 5, dose 3 mg/kg ip) | HL60 Mean Vol. ± SD (HL-60 Human Leukemia; Table 5, dose 10 mg/kg ip) | Mean Red Blood Cell to Plasma Ratio [2] | IC50 (NCI-H460; [6]) [µM] | IC50 (HL-60; [7]) [µM] | IC50 (PC-3; [8]) [µM] | PC-3 Mean Vol. ± SD ([1]; Table 5, dose 1 mg/kg ip) | HL60 Mean Vol. ± SD (HL-60 Human Leukemia; Table 5, dose 1 mg/kg ip) | Mean Red Blood Cell to Plasma Ratio ([2]; dihydrochloride) | PC-3 Mean Vol. ± SD ([1]; Table 4, dose 1 mg/kg ip) | PC-3 Mean Vol. ± SD ([1]; Table 4, dose 3 mg/kg ip) | HL60 Mean Vol. ± SD (HL-60 Human Leukemia; Table 4, dose 1 mg/kg ip) | HL60 Mean Vol. ± SD (HL-60 Human Leukemia; Table 4, dose 3 mg/kg ip) |
| --- | --- | --- | --- | --- | --- | --- | --- | --- | --- | --- | --- | --- | --- | --- | --- | --- | --- | --- | --- |
| Cl.Cl.N[C@H]1CC[C@H](Nc2nc(NC3CCN(C(=O)c4cccc(C(F)(F)F)c4F)CC3)c3ncn(C4CCCC4)c3n2)CC1 [compound 12, trans-1-{4-[2-(4-Amino-cyclohexylamino)-9-cyclopentyl-9H-purin-6-ylamino]-piperidin-1-yl}-1-(2-fluoro-3-trifluoromethyl-phenyl)-methanone dihydrochloride] | 614 | 0.38 | 0.16 | 0.48 | 1063 ± 693 | 1107 ± 606 | 4948 ± 2803 | 2624 ± 2108 | 1.9 |  |  |  |  |  |  |  |  |  |  |
| Cl.Cl.N[C@H]1CC[C@H](Nc2nc(NC3CCN(C(=O)Oc4ccc(Br)cc4)CC3)c3ncn(C4CCCC4)c3n2)CC1 [compound 81, trans-4-[2-(4-Amino-cyclohexylamino)-9-cyclopentyl-9H-purin-6-ylamino]-piperidine-1-carboxylic acid 4-bromo-phenyl ester dihydrochloride] | 67 |  |  |  | 1007 ± 1120 |  | 5104 ± 4014 |  |  | 0.07 | 0.02 | 0.12 | 1258 ± 523 | 5802 ± 2996 | 3.3 and 4.5 |  |  |  |  |
| COC(=O)c1ccc(OC(=O)N2CCC(Nc3nc(N[C@H]4CC[C@H](N)CC4)nc4c3ncn4C3CCCC3)CC2)cc1.Cl.Cl [compound 83, trans-4-[2-(4-Amino-cyclohexylamino)-9-cyclopentyl-9H-purin-6-ylamino]-piperidine-1-carboxylic acid 4-methoxycarbonyl-phenyl ester dihydrochloride] | 185 |  |  |  | 899 ± 593 | 1426 ± 1131 | 5906 ± 2948 | 4057 ± 2599 | 112.2 | 0.07 | 0.06 | 0.15 |  |  |  |  |  |  |  |
| COc1ccc(OC(=O)N2CCC(Nc3nc(N[C@H]4CC[C@H](N)CC4)nc4c3ncn4C3CCCC3)CC2)cc1.Cl.Cl [compound 84, trans-4-[2-(4-Amino-cyclohexylamino)-9-cyclopentyl-9H-purin-6-ylamino]-piperidine-1-carboxylic acid 4-methoxy-phenyl ester dihydrochloride] | 69 |  |  |  | 1386 ± 752 |  | 4886 ± 3467 |  | 3.5 | 0.07 | 0.04 | 0.12 | 770 ± 567 | 4790 ± 6912 |  |  |  |  |  |
| Cl.Cl.N[C@H]1CC[C@H](Nc2nc(NC3CCN(C(=O)Oc4ccc(F)cc4)CC3)c3ncn(C4CCCC4)c3n2)CC1 [compound 87, trans-4-[2-(4-Amino-cyclohexylamino)-9-cyclopentyl-9H-purin-6-ylamino]-piperidine-1-carboxylic acid 4-fluoro-phenyl ester dihydrochloride] | 27 |  |  |  |  |  |  |  | 3.4 | 0.08 | 0.05 |  |  |  |  | 3271 ± 2262 | 1396 ± 958 | 3718 ± 2715 | 7096 ± 3079 |
| Cl.Cl.N[C@H]1CC[C@H](Nc2nc(NC3CCN(C(=O)Oc4ccc(Cl)cc4)CC3)c3ncn(C4CCCC4)c3n2)CC1 [compound 88, trans-4-[2-(4-Amino-cyclohexylamino)-9-cyclopentyl-9H-purin-6-ylamino]-piperidine-1-carboxylic acid 4-chloro-phenyl ester dihydrochloride] | 204 |  |  |  |  |  |  |  | 3.5 | 0.06 | 0.07 | 0.1 |  |  |  | 1601 ± 1348 | 2278 ± 2110 | 4415 ± 2740 | 2624 ± 2108 |
| Cl.Cl.N[C@H]1CC[C@H](Nc2nc(NC3CCN(C(=O)Oc4ccc([N+](=O)[O-])cc4)CC3)c3ncn(C4CCCC4)c3n2)CC1 [compound 89, trans-4-[2-(4-Amino-cyclohexylamino)-9-cyclopentyl-9H-purin-6-ylamino]-piperidine-1-carboxylic acid 4-nitro-phenyl ester dihydrochloride] | 65 |  |  |  |  |  |  |  | 4.7 | 0.03 | 0.02 | 0.06 |  |  |  | 2572 ± 1052 | 866 ± 384 | 2444 ± 2291 | 4278 ± 2801 |
| Cl.Cl.N[C@H]1CC[C@H](Nc2nc(NC3CCN(S(=O)(=O)c4ccc(F)cc4)CC3)c3ncn(C4CCCC4)c3n2)CC1 [compound 106, trans-N^2-(4-Amino-cyclohexyl)-9-cyclopentyl-N^6-[1-(4-fluoro-benzenesulfonyl)-piperidin-4-yl]-9H-purine-2,6-diamine dihydrochloride] | 15 | 0.22 | 0.1 | 0.82 |  |  |  |  | 3.0 |  |  |  |  |  |  | 1860 ± 741 | 1482 ± 906 | 4271 ± 3851 | 7368 ± 2592 |
